Drawing on the NIST ThermoML archive (doi:10.1016/j.fluid.2011.09.010), this text covers activity coefficient for six compounds.

± gives the expanded uncertainty stated by the source.

A short description of this data set: activity coefficient (dimensionless); of the first substance listed, at infinite dilution; xn = mol fraction of the nth substance listed. The following applies: 101.3 kPa, Liquid, Differential ebulliometry, x1 = 0.

On to `C1CCCCC1` [cyclohexane] + NC1CCCCC1, for which the activity coefficient reads like this: (373.15 K) 1.24 ± 0.15; (393.15 K) 1.18 ± 0.14.
For `NC1CCCCC1` [cyclohexylamine] + C1CCCCC1, the activity coefficient reads like this: (333.15 K) 1.77 ± 0.21; (348.15 K) 1.49 ± 0.18.
With `NC1CCCCC1` [cyclohexylamine] + CC1CCCCC1, the activity coefficient is 1.87 ± 0.22 (353.15 K), 1.64 ± 0.2 (373.15 K) and 1.48 ± 0.18 (393.15 K).
For the compound `NC1CCCCC1` [cyclohexylamine] + CCC1CCCCC1, the activity coefficient amounted to 1.52 ± 0.18 (353.15 K), 1.45 ± 0.17 (373.15 K) and 1.36 ± 0.16 (393.15 K).
For `CCC1CCCCC1` [ethylcyclohexane] + NC1CCCCC1, the activity coefficient is, setting by setting: (353.15 K) 1.57 ± 0.19; (373.15 K) 1.45 ± 0.17; (393.15 K) 1.42 ± 0.17.
On to `CC1CCCCC1` [methylcyclohexane] + NC1CCCCC1, for which the activity coefficient worked out at 1.19 ± 0.14 (333.15 K), 1.26 ± 0.15 (353.15 K) and 1.25 ± 0.15 (373.15 K).
